Data set [1] in a line: Solid form stability at ambient conditions. In kind it is physicochemical.
The nature of data set [2]: Dynamic vapor sorption (DVS) water uptake. To be noted: for total water uptake / water uptake: DVS; for hygroscopicity: characterised by DVS water uptake. In kind it is physicochemical. The text has this:
Dynamic Vapor Sorption (DVS)
Vapor sorption data were collected on a Surface Measurement System DVS Intrinsic instrument. Samples were not dried prior to analysis. Sorption and desorption data were collected over the stated range from at 10% RH increments under a nitrogen purge. The equilibrium criterion used […]

Data set [3] can be described thus: Relative humidity (RH) experiments / exposure to moisture, solid form change. To be noted: for form change: exposure to moisture / relative humidity (RH) experiments. In kind it is physicochemical. From the text:
The three batches of Compound I (ONC206·2HCl) manufactured to date are described below. The first two processes consistently produced Form 1 (i.e., desolvated anhydrous form, Form 1).

Data set [4] concerns diffuse midline glioma, H3 K27M-mutant (DMG H3K27M). To be noted: patients with diffuse midline glioma; cited from earlier work.

SMILES strings stand for the structures. Structures can show the parent of a compound that is named as a salt.

With `O=C1C2=C(CCN(Cc3ccccc3)C2)N2CCN=C2N1Cc1ccc(F)cc1F` [Compound I Material 14, 7-benzyl-4-(2,4-difluorobenzyl)-2,4,6,7,8,9-hexahydroimidazo[1,2-a]pyrido[3,4-e]pyrimidin-5(1H)-one], the “stability of the solid form” value in data set [1] is “metastable”.

`O=C1C2=C(CCN(Cc3ccccc3)C2)N2CCN=C2N1Cc1ccc(F)cc1F` [Compound I Fumarate Form A, 7-benzyl-4-(2,4-difluorobenzyl)-2,4,6,7,8,9-hexahydroimidazo[1,2-a]pyrido[3,4-e]pyrimidin-5(1H)-one]: in data set [2], the total water uptake worked out at 0.7% and the hygroscopicity result is on record as “slightly hygroscopic”. The same molecule came in with a total water uptake in data set [2] (moles of water) of 0.1 mol. For the same molecule, in data set [2] (relative humidity of up to 95%), the water uptake turned out to be 0.7%.

Take `O=C1C2=C(CCN(Cc3ccccc3)C2)N2CCN=C2N1Cc1ccc(F)cc1F` [Compound I Tosylate Form A, 7-benzyl-4-(2,4-difluorobenzyl)-2,4,6,7,8,9-hexahydroimidazo[1,2-a]pyrido[3,4-e]pyrimidin-5(1H)-one]: in data set [2], the total water uptake was 1.3% and the hygroscopicity result is “slightly hygroscopic”. This molecule returned a total water uptake in data set [2] (moles of water) of 0.4 mol. This molecule also returned a water uptake in data set [2] (relative humidity of up to 96%) of 1.3%.

For the molecule `O=C1C2=C(CCN(Cc3ccccc3)C2)N2CCN=C2N1Cc1ccc(F)cc1F` [Compound I Form 2, 7-benzyl-4-(2,4-difluorobenzyl)-2,4,6,7,8,9-hexahydroimidazo[1,2-a]pyrido[3,4-e]pyrimidin-5(1H)-one], the form change entry in data set [3] was “no form change was observed”. For the same molecule, the total water uptake was 2.5% in data set [2] and ~ 0.7 moles in data set [2] (moles of water). Besides, the hygroscopicity entry in data set [2] is reported as “hygroscopic”. Also, the water uptake in data set [2] (relative humidity of 5% to 25%) came out at 1.8%; in data set [2] (relative humidity of 25% to 95%), 0.6%.

`Cc1ccccc1CN1C(=O)C2=C(CCN(Cc3ccccc3)C2)N2CCN=C12` [ONC201]: the tumor regressions entry in data set [4] is on record as “induced durable tumor regressions”.

For `O=C1C2=C(CCN(Cc3ccccc3)C2)N2CCN=C2N1Cc1ccc(F)cc1F` [Compound I Form A, 7-benzyl-4-(2,4-difluorobenzyl)-2,4,6,7,8,9-hexahydroimidazo[1,2-a]pyrido[3,4-e]pyrimidin-5(1H)-one], in data set [2], the total water uptake worked out at 0.3% and the hygroscopicity result is recorded as “non-hygroscopic”. The molecule further returned a total water uptake in data set [2] (moles of water) of less than 0.1 mol. The water uptake in data set [2] (relative humidity of up to 95%) was found to be 0.3%.

Consider `O=C1C2=C(CCN(Cc3ccccc3)C2)N2CCN=C2N1Cc1ccc(F)cc1F` [Compound I Form 1, 7-benzyl-4-(2,4-difluorobenzyl)-2,4,6,7,8,9-hexahydroimidazo[1,2-a]pyrido[3,4-e]pyrimidin-5(1H)-one], for which, in data set [3], the form change entry was “tends to convert into Form 2”. Besides, the hygroscopicity entry in data set [3] (statement in Example 1) and in data set [2] was “hygroscopic” each time. In addition, the results for the total water uptake in data set [2] and in data set [2] (moles of water) were 7.5% and ~ 2.2 moles, respectively. In addition, the water uptake turned out to be 6.7% in data set [2] (relative humidity of 65% to 85%), 0.3% in data set [2] (relative humidity of 85% to 95%) and 0.5% in data set [2] (relative humidity of up to 65%).

As for `O=C1C2=C(CCN(Cc3ccccc3)C2)N2CCN=C2N1Cc1ccc(F)cc1F` [Compound I Besylate Form A, 7-benzyl-4-(2,4-difluorobenzyl)-2,4,6,7,8,9-hexahydroimidazo[1,2-a]pyrido[3,4-e]pyrimidin-5(1H)-one], the total water uptake was 0.3% in data set [2] and less than 0.1 mol in data set [2] (moles of water). Also, in data set [2], the hygroscopicity entry is given as “non-hygroscopic”. The molecule also yielded a water uptake in data set [2] (relative humidity of up to 95%) of 0.3%.

As for `O=C1C2=C(CCN(Cc3ccccc3)C2)N2CCN=C2N1Cc1ccc(F)cc1F` [Compound I Sulfate Form A, 7-benzyl-4-(2,4-difluorobenzyl)-2,4,6,7,8,9-hexahydroimidazo[1,2-a]pyrido[3,4-e]pyrimidin-5(1H)-one], in data set [2], the total water uptake was determined as 2.5% and the hygroscopicity entry was “slightly hygroscopic”. In addition, the total water uptake in data set [2] (moles of water) was found to be 1.3 mol. Moreover, the water uptake in data set [2] (relative humidity of up to 96%) turned out to be 2.5%.

Values taken from US20260265252A1, “SOLID STATE FORMS OF IMIPRIDONE DERIVATIVE” (CHIMERIX, INC., priority 2024, published 2026).
